Results reported in patent US20070225268A1, “METHOD TO TREAT NEOPLASMS VIA GADOLINIUM STEREOTACTIC SYNCHROTRON RADIATION” (priority 2005, published 2007).
Where “and” joins values, the source holds several entries; their conditions need not be identical. Equal entries are not always repeated.

How the values were obtained:
[1] = system: glioblastoma multiforme cell nuclei; assay: In vivo biodistribution of Gd-DTPA in glioblastoma multiforme patients (ICP-MS, spectromicroscopy); design: species or system human; settings: six glioblastoma multiforme patients injected with Gd-DTPA before tumor excision
Text: The present inventors also tested the in vivo biodistribution of Gd-DTPA in six glioblastoma multiforme patients injected with Gd-DTPA before tumor excision. The tumors were frozen and sectioned for ICP-MS and Microscope à Emission de Photoélectrons par Illumination Synchrotronique de Type Onduleur analysis. Evidence for Gd intracellular localization was found within the tumors in all six cases. However, the gadolinium localized in only 6.1% of the cell nuclei analyzed.

F98 brain glioma = settings: intracranial infusion one day before 78.8 keV photons, 15 Gy single dose; cited from earlier work
TB10 cells [2] = assay: X-PEEM (SPHINX) spectromicroscopy of intranuclear Gd; format: cell-based, human
Procedure: (§1) Cell Culture and Exposure to Motexafin Gadolinium: Four well-established human glioblastoma multiforme cell lines were used for the in vitro studies: T98G (22), U87 (23), MO59K (24), and TB10 (9, 25). Cells were grown on precut 10 mm×10 mm silicon wafers (Silson, Northhampton, United Kingdom) for X-PEEM spectromicroscopy; on 1 mm×1 mm Si3N4 windows, 100 nm thick (Silson) for STXM spectromicroscopy; on tissue culture-treated polystyrene slides for confocal microscopy; and in Petri dishes for ICP-MS analysis. Subconfluent cultures were exposed to motexafin gadolinium (Pharmacyclics, Sunnyvale, Calif.), formulated at 2.3 mg/mL in 5% aqueous mannitol, and added to the culture medium to a final concentration of 100 μmol/L. Six different exposure times ranging from 0 to 72 hours were used for the ICP-MS time course measurements. For all microscopy experiments exposure times were kept constant at 72 hours. The cell appearance was not altered by motexafin gadolinium exposure.
(§2) After exposure to motexafin gadolinium, the cell cultures on Si substrates for X-PEEM analysis were washed three times with PBS solution to remove free Gd, fixed in 4% paraformaldehyde in PBS for 20 minutes, double-washed in Milli-Q-water, and air dried. At this point, some cell cultures were sputtered with 3-kV argon ions at 10^−5 Torr for 10 minutes; others were not. Sputtering removes the topmost portion of the cell to reveal the inner nuclear compartment of fixed cells (26). Sputtered and unsputtered cells were then ashed in UV/O3 for 140 hours (27). […]
X-PEEM Spectromicroscopy Analysis: X-PEEM spectromicroscopy analysis was done using the Spectromicroscope for Photoelectron Imaging of Nanostructures with X-rays (SPHINX) instrument (Elmitec GmbH, Clausthal, Germany), installed on the HERMON beamline at the Synchrotron Radiation Center (Madison, Wis.). […] Cell and tissue ashing increases gadolinium concentration by a factor of 10; therefore, the detection limit was on the order of ≦100 ppm in all cells analyzed. […]

MO59K cells = assay: STXM spectromicroscopy of intranuclear Gd; format: cell-based, human; settings: 27 MO59K cells, 100 μmol/L, 72 hours
Procedure: as §1
as §2, with “(27). Parallel cultures were run and treated identically for ICP-MS measurements of the bulk Gd concentration. Cell cultures for STXM analysis on Si3N4 windows, after motexafin gadolinium exposure, were washed, fixed, washed, and air-dried.” for “(27).”
(§3) STXM Spectromicroscopy Analysis: The STXM instrument on beamline 11.0.2 at the Advanced Light Source in Berkeley uses an undulator source and is optimized for the Gd3d absorption energy. […] Three cell cultures were analyzed, containing 34 T98G cells, 27 MO59K cells, and 139 TB10 cells, respectively. […]

T98G cells = assay: STXM spectromicroscopy of intranuclear Gd; format: cell-based, human; settings: 34 T98G cells, 100 μmol/L, 72 hours
Procedure: as §1
as §2, with “(27). Parallel cultures were run and treated identically for ICP-MS measurements of the bulk Gd concentration. Cell cultures for STXM analysis on Si3N4 windows, after motexafin gadolinium exposure, were washed, fixed, washed, and air-dried.” for “(27).”
as §3

TB10 cells [3] = assay: STXM spectromicroscopy of intranuclear Gd; format: cell-based, human; settings: 139 TB10 cells, 100 μmol/L, 72 hours
Procedure: as §1
as §2, with “(27). Parallel cultures were run and treated identically for ICP-MS measurements of the bulk Gd concentration. Cell cultures for STXM analysis on Si3N4 windows, after motexafin gadolinium exposure, were washed, fixed, washed, and air-dried.” for “(27).”
as §3

[4] = system: T98G, MO59K and TB10 cells; assay: STXM spectromicroscopy of intranuclear Gd, all cells analyzed; format: cell-based, human; settings: overall, n=200
Procedure: as §1, with “exposure. […]” for “exposure.”
as §3

[5] = system: TB10, MO59K and T98G cells; assay: Confocal fluorescence microscopy of motexafin gadolinium-related fluorescence; format: cell-based, human; settings: n=481, 100 μmol/L, 72 hours
Procedure: Cell Culture and Exposure to Motexafin Gadolinium: Four well-established human glioblastoma multiforme cell lines were used for the in vitro studies: T98G (22), U87 (23), MO59K (24), and TB10 (9, 25). Cells were grown on precut 10 mm×10 mm silicon wafers (Silson, Northhampton, United Kingdom) for X-PEEM spectromicroscopy; on 1 mm×1 mm Si3N4 windows, 100 nm thick (Silson) for STXM spectromicroscopy; on tissue culture-treated polystyrene slides for confocal microscopy; and in Petri dishes for ICP-MS analysis. […]
Confocal Microscopy: Three of the four cell lines (TB10, MO59K, and T98G) were analyzed using a Bio-Rad (Richmond, Calif.) MRC 1024ES confocal microscope. This instrument can simultaneously measure the fluorescence from three channels, with excitation wavelengths from the three lines of a krypton/argon laser and emission through three independent barrier filters. […]
The aperture was set for minimal optical section thickness, and laser power and photodetector gain were set to image cell fluorescence within the 8-bit grayscale range of the photodetector. Five consecutive optical sections were obtained vertically through the cells to verify that motexafin gadolinium fluorescence originated from the nucleus and not only from the cytoplasm above or below the nucleus.

[6] = ICP-MS of Gd in tissue and plasma of glioblastoma multiforme patients; format: in vivo, human
Procedure: Tissue samples from three glioblastoma multiforme patients were also analyzed with ICP-MS (Table 1). These were collected from glioblastoma multiforme tissue and plasma for patients 1 and 2, and from tumor necrotic and uninvolved brain areas for the postmortem patient 3. All gadolinium concentrations were normalized to the measured tissue weight and volume. […]

[7] = system: human glioblastoma multiforme cell lines; assay: Cell appearance after exposure in culture; format: cell-based; settings: 100 μmol/L, up to 72 hours
Procedure: as §1

O=C([O-])CN(CCN(CC(=O)[O-])CC(=O)O)CCN(CC(=O)[O-])CC(=O)O.[Gd+3] [Gd-DTPA, gadolinium diethylenetriaminepentaacetic acid]
percentage of cell nuclei analyzed in which gadolinium localized [1]: 6.1%

N.N.[Cl][Pt][Cl] [cis-platinum]
survival rate at one year (F98 brain glioma): 34%

motexafin gadolinium
percentage of Gd-containing nuclei (TB10 cells [2]; TB10, after sputtering (72 cells)): 88%
percentage of Gd-containing nuclei (TB10 cells [2]; TB10, before sputtering (unsputtered, 108 cells)): 92%
percentage of cells with at least one gadolinium pixel in the nucleus (TB10 cells [2]; TB10, n=180, 100 μmol/L, 72 hours): 90%
percentage of cells containing gadolinium in their nuclei (MO59K cells): 96%
percentage of cells containing gadolinium in their nuclei (T98G cells): 90%
percentage of cells containing gadolinium in their nuclei (TB10 cells [3]): 88%
percentage of cells with at least one gadolinium pixel in their nuclei [4]: 90%
percentage of cells exhibiting motexafin gadolinium-related fluorescence in cytoplasm and nuclei [5]: 100%
[Gd] ([6]; Patient 1, Plasma, 2:30 hrs, single dose 10 mg/kg): 3.415 ppm
[Gd] ([6]; Patient 1, Plasma, 5 min, single dose 10 mg/kg): 12.973 ppm
[Gd] ([6]; Patient 1, Plasma, 45 min, single dose 10 mg/kg): 7.349 ppm
[Gd] ([6]; Patient 1, Plasma, 3 hrs, single dose 10 mg/kg): 4.079 ppm
[Gd] ([6]; Patient 1, Plasma, 24 hrs, single dose 10 mg/kg): 1.700 ppm
[Gd] ([6]; Patient 1, Tumor, 2:30 hrs, single dose 10 mg/kg): 7.266 ppm
[Gd] ([6]; Patient 1, Tumor, 3 hrs, single dose 10 mg/kg): 2.475 ppm
[Gd] ([6]; Patient 2, Plasma, 1:14 hrs, single dose 10 mg/kg): 6.536 ppm
[Gd] ([6]; Patient 2, Plasma, 1:30 hrs, single dose 10 mg/kg): 6.309 ppm
[Gd] ([6]; Patient 2, Plasma, 5 min, single dose 10 mg/kg): 14.043 ppm
[Gd] ([6]; Patient 2, Plasma, 45 min, single dose 10 mg/kg): 8.143 ppm
[Gd] ([6]; Patient 2, Plasma, 3 hrs, single dose 10 mg/kg): 5.109 ppm
[Gd] ([6]; Patient 2, Plasma, 24 hrs, single dose 10 mg/kg): 1.770 ppm
[Gd] ([6]; Patient 2, Tumor, 1:11 hrs, single dose 10 mg/kg): 29.728 ppm
[Gd] ([6]; Patient 2, Tumor, 1:18 hrs, single dose 10 mg/kg): 19.580 ppm
[Gd] ([6]; Patient 2, Tumor, 45 min, single dose 10 mg/kg): 22.589 ppm
[Gd] ([6]; Patient 3 (autopsy), Necrosis within tumor, 57 days after the last of multiple doses): 2.144 ppm
[Gd] ([6]; Patient 3 (autopsy), Tumor, 57 days after the last of multiple doses, listed as Motexafin-Gd): 8.542 ppm and 8.022 ppm
cell appearance [7]: not altered
